These results are taken from US6194398A, “Phosphonate nucleotide compound” (Mitsubishi Chemical Corporation, priority 1996, dated 2001).

Read-outs that look alike come from different tables or passages of the source.

A short description of data set [1]: Cytotoxicity: concentration causing death to 50% of HB611 cells. In kind it is cell-based. The note with it: human, read-out: 50% Cytotoxic concentration for HB611 cells. How it is done:
A total of 2×10^4 cells of HB611 (a HBV-producing recombinant human hepatoma cell strain) were cultured at 37° C. in Dulbecco's ME medium containing 10% fetal bovine serum, streptomycin (100 μg/ml), penicillin (100 IU/ml) and Geneticin (trade name, an antibiotic substance manufactured by Life Technologies) (0.2 mg/ml). […] The amount of HBV-DNA in the cells was measured by Southern blotting to calculate concentration of the compound to give 50% inhibition of HBV-DNA synthesis. Also, the concentration of each compound required for causing death to 50% of the HB611 cells was calculated. For the sake of comparison, the same test was carried out on a known compound PMFA, a dipivaloyloxymethyl ester of PMEA (Reference Example 1) and a known compound 9-[2-[bis(2,2,2-trifluoroethyl)-phosphonylmethoxy]ethyl]-2-amino-6-p-toluylthiopurine disclosed in EP 632048 (Reference Example 2). In this connection, the compound No. corresponds to the compound No. in Table 1.

Another data set deals with Hepatitis B virus (HBV). The data set is described as follows: HBV growth inhibition effect: HBV-DNA synthesis in HB611 cells, Southern blotting. Type of data set: cell-based. To be noted: read-out: 50% inhibitory concentration for HBV-DNA synthesis. How it is done:
Hepatitis B virus (HBV) growth inhibition effect
HBV growth inhibition effect was measured in accordance with a known method (K. Ueda et al., Virology, 169, 213-216 (1989)).
A total of 2×10^4 cells of HB611 (a HBV-producing recombinant human hepatoma cell strain) were cultured at 37° C. in Dulbecco's ME medium containing 10% fetal bovine serum, streptomycin (100 μg/ml), penicillin (100 IU/ml) and Geneticin (trade name, an antibiotic substance manufactured by Life Technologies) (0.2 mg/ml). The medium was exchanged on the 2nd and 5th days of the culturing and then replaced by the medium supplemented with a sample to be tested at a final concentration of from 0.005 to 100 μM after 8, 11 and 14 days of the culturing, and DNA was recovered from the cells after 17 days of the culturing. The amount of HBV-DNA in the cells was measured by Southern blotting to calculate concentration of the compound to give 50% inhibition of HBV-DNA synthesis. Also, the concentration of each compound required for causing death to 50% of the HB611 cells was calculated. For the sake of comparison, the same test was carried out on a known compound PMFA, a dipivaloyloxymethyl ester of PMEA (Reference Example 1) and a known compound 9-[2-[bis(2,2,2-trifluoroethyl)-phosphonylmethoxy]ethyl]-2-amino-6-p-toluylthiopurine disclosed in EP 632048 (Reference Example 2). In this connection, the compound No. corresponds to the compound No. in Table 1.

The next data set deals with HBV. Nature of the data set: Inhibitory effect on HBV replication of low molecular weight fraction of liver homogenate of orally dosed mouse. To be noted: 0.2 g/kg oral, liver 1 hour after administration, 1% low molecular weight fraction in HB611 medium. Type of data set: cell-based, hepatitis B virus. How it is done:
Inhibitory effect on HBV replication of low molecular weight fraction prepared from liver homogenate of a mouse that was orally administered with a compound.
A sample to be tested was orally administered to each mouse of three animals per group in a dose of 0.2 g/kg, liver perfusion was carried out from the portal vein one hour after the administration and then the liver was excised. The thus excised liver was mixed with the same weight of physiological saline and was homogenized, and then a sample of low molecular weight fraction of the homogenate was prepared using an ultrafiltration membrane having a cutoff of 5,000 molecular weight.
A total of 2×10^4 cells of HB611 were cultured at 37° C. in Dulbecco's ME medium containing 10% fetal bovine serum, streptomycin (100 μg/ml), penicillin (100 IU/ml) and Geneticin (0.2 mg/ml). The medium was exchanged on the 2nd and 5th days of the culturing and then replaced by the medium supplemented with 1% of the just described low molecular weight fraction sample after 8, 11 and 14 days of the culturing, and DNA was recovered from the cells after 17 days of the culturing. The amount of HBV-DNA in the cells was measured by Southern blotting to evaluate inhibitory effect on HBV-DNA synthesis in the cells. […]

Data set [2] has as its system herpes simplex virus type 2 (HSV-2). To be noted: reported in literature; cited from earlier work.
Data set [3] deals with human hepatitis B virus (HBV). The note with it: reported in literature; cited from earlier work.
Data set [4] has as its system human immunodeficiency virus (HIV). To be noted: reported in literature; cited from earlier work.
Data set [5] relates to herpes simplex virus type 1 (HSV-1). To be noted: reported in literature; cited from earlier work.
Where [6] appears, read: 408 h, HB611 cells, medium with sample on days 8, 11 and 14, DNA recovered after 17 days.

Regarding `CCSc1nc(N)nc2c1ncn2CCOCP(=O)(OCC(F)(F)F)OCC(F)(F)F` [Compound 2, 2-amino-9-[2-[bis(2,2,2-trifluoroethyl)phosphonylmethoxy]ethyl]-6-ethylthiopurine], in data set [1], the CC50 was greater than 1000 µM. Further, the IC50 with Hepatitis B virus (HBV) (setting [6]) amounted to 0.06 µM.

Regarding `CCCSc1nc(N)nc2c1ncn2CCOCP(=O)(O)O` [Ref. Ex. 3, 2-amino-9-(2-phosphonylmethoxyethyl)-6-n-propylthiopurine], the “% inhibition of HBV-DNA synthesis” value in the data set on HBV was found to be 17%.

As to `Nc1ncnc2c1ncn2CCOCP(=O)(O)O` [PMEA, 9-(2-phosphonylmethoxy)ethyladenine], the “effective against HSV-2” value in data set [2] was “effective”. For the same molecule, the CC50 in data set [1] was found to be 334 µM. In addition, the “effective against HBV” value in data set [3] is “effective”. For the same molecule, the “effective against HIV” value in data set [4] is “effective”. Moreover, the IC50 in the data set with Hepatitis B virus (HBV) (HB611, 408 h) was determined as 0.3 µM. In addition, in data set [5], the “effective against HSV-1” value was “effective”.

Consider `CC(C)Sc1nc(N)nc2c1ncn2CCOCP(=O)(OCC(F)(F)F)OCC(F)(F)F` [Compound 4, 2-amino-9-[2-[bis(2,2,2-trifluoroethyl)phosphonylmethoxy]ethyl]-6-i-propylthiopurine], for which the CC50 in data set [1] was greater than 1000 µM. The IC50 in the data set on Hepatitis B virus (HBV) (setting [6]) came out at 0.07 µM.

For `CCCSc1nc(N)nc2c1ncn2CCOCP(=O)(OCC(F)(F)F)OCC(F)(F)F` [Compound 3, 2-amino-9-[2-[bis(2,2,2-trifluoroethyl)phosphonylmethoxy]ethyl]-6-n-propylthiopurine], in the data set with HBV, the “% inhibition of HBV-DNA synthesis” value is reported as 49%. For the same molecule, the CC50 in data set [1] is greater than 1000 µM. Moreover, the IC50 in the data set with Hepatitis B virus (HBV) (setting [6]) turned out to be 0.02 µM.

In the case of `CC(C)(C)C(=O)OCOP(=O)(COCCn1cnc2c(N)ncnc21)OCOC(=O)C(C)(C)C` [Ref. Ex. 1], the CC50 in data set [1] amounted to 17.7 µM. In the data set on Hepatitis B virus (HBV) (HB611, 408 h), the IC50 is 1.08 µM.

Regarding `Cc1ccc(Sc2nc(N)nc3c2ncn3CCOCP(=O)(OCC(F)(F)F)OCC(F)(F)F)cc1` [Ref. Ex. 2, 9-[2-[bis(2,2,2-trifluoroethyl)-phosphonylmethoxy]ethyl]-2-amino-6-p-toluylthiopurine], the IC50 in the data set with Hepatitis B virus (HBV) (setting [6]) was found to be 0.06 µM.

In the case of `Nc1nc(N)c2ncn(CCOCP(=O)(O)O)c2n1` [PMDAP, 9-(2-phosphonylmethoxy)ethyl-2,6-diaminopurine], in data set [2], the “effective against HSV-2” value is “effective”. In addition, the “effective against HBV” value in data set [3] is recorded as “effective”. In addition, the “effective against HIV” value in data set [4] is “effective”. Besides, the “effective against HSV-1” value in data set [5] is “effective”.
